Measured values: PubChem BioAssay AID256 (DTP/NCI, 2004)
Several values for one entry are separate records, joined by “and”; a condition that tells them apart may be missing. Equal values may be shown once. Toxic doses and inconclusive results are not listed.

Test system: CD2F1 mice, L1210 leukemia ip, survival T/C
Assay: NCI In Vivo Anticancer Drug Screen. Data for tumor model L1210 Leukemia (intraperitoneal) in CD2F1 (CDF1) mice
Settings: higher = longer survival
Procedure, shortened: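 Mice carrying a transplanted tumor received test compound or vehicle alone. The value is the measurement in the treated group divided by that in the vehicle-treated control group.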

[1] = endpoint: mean survival time, dose: 25.0 mg/kg/injection, schedule: Q04DX003 (ip), vehicle: saline with Tween-80
[2] = endpoint: mean survival time, dose: 50.0 mg/kg/injection, schedule: Q04DX003 (ip), vehicle: saline with Tween-80
[3] = endpoint: mean survival time, dose: 12.5 mg/kg/injection, schedule: Q04DX002 (ip), vehicle: saline with Tween-80
[4] = endpoint: mean survival time, dose: 100.0 mg/kg/injection, schedule: Q01DX001 (ip), vehicle: saline with Tween-80
[5] = endpoint: mean survival time, dose: 200.0 mg/kg/injection, schedule: Q01DX001 (ip), vehicle: saline with Tween-80

O=C1c2ccccc2C(=O)n2nc3ccccc3c21
T/C (endpoint: median survival time, dose: 50.0 mg/kg/injection, schedule: Q04DX002 (ip), vehicle: saline with Tween-80): 100 % of control
T/C (endpoint: median survival time, dose: 100.0 mg/kg/injection, schedule: Q04DX002 (ip), vehicle: saline with Tween-80): 100 % of control
T/C (endpoint: median survival time, dose: 200.0 mg/kg/injection, schedule: Q04DX002 (ip), vehicle: saline with Tween-80): 90 % of control
T/C (endpoint: median survival time, dose: 400.0 mg/kg/injection, schedule: Q04DX002 (ip), vehicle: saline with Tween-80): 100 % of control

O=C1C(Cl)=C(SCc2ccccc2)C(=O)c2ccccc21
T/C [1]: 91 % of control
T/C [2]: 91 % of control

CCCCCCCCC/C(=N\Nc1ccc([N+](=O)[O-])cc1[N+](=O)[O-])c1ccccc1
T/C (endpoint: mean survival time, dose: 100.0 mg/kg/injection, schedule: Q01DX009 (ip), vehicle: saline with Tween-80): 97 % of control
T/C (endpoint: mean survival time, dose: 200.0 mg/kg/injection, schedule: Q01DX009 (ip), vehicle: saline with Tween-80): 87 % of control
T/C (endpoint: mean survival time, dose: 400.0 mg/kg/injection, schedule: Q01DX009 (ip), vehicle: saline with Tween-80): 94 % of control

CC(C)(C)[CH2][Sn]([Cl])([CH2]C(C)(C)C)[CH2]C(C)(C)C
T/C (endpoint: mean survival time, dose: 3.13 mg/kg/injection, schedule: Q04DX002 (ip), vehicle: saline with Tween-80): 97 % of control
T/C (endpoint: mean survival time, dose: 6.25 mg/kg/injection, schedule: Q04DX002 (ip), vehicle: saline with Tween-80): 101 % of control
T/C [3]: 103 % of control

O=CC(O)C(O)C(O)C(O)C(=O)O.[NH-]CC1CCCCC1[NH-].[Pt+2] (stereo not given)
T/C (endpoint: mean survival time, dose: 1.88 mg/kg/injection, schedule: Q04DX003 (ip), vehicle: saline): 118 % of control
T/C (endpoint: mean survival time, dose: 7.5 mg/kg/injection, schedule: Q04DX003 (ip), vehicle: saline): 156 % of control
T/C (endpoint: mean survival time, dose: 15.0 mg/kg/injection, schedule: Q04DX003 (ip), vehicle: saline): 166 % of control and 253 % of control
T/C (endpoint: mean survival time, dose: 30.0 mg/kg/injection, schedule: Q04DX003 (ip), vehicle: saline): 151 % of control

Nc1ccc2ccccc2c1N=Nc1ccc(C(O)C(N)CO)cc1 (stereo not given)
T/C (endpoint: mean survival time, dose: 6.25 mg/kg/injection, schedule: Q04DX003 (ip), vehicle: saline with Tween-80): 100 % of control
T/C (endpoint: mean survival time, dose: 12.5 mg/kg/injection, schedule: Q04DX003 (ip), vehicle: saline with Tween-80): 96 % of control
T/C [1]: 94 % of control

Nc1ncnc2nc(-c3ccc(Cc4ccccc4)cc3)[nH]c12
T/C (endpoint: mean survival time, dose: 0.63 mg/kg/injection, schedule: Q01DX009 (ip), vehicle: saline): 96 % of control
T/C (endpoint: mean survival time, dose: 1.25 mg/kg/injection, schedule: Q01DX009 (ip), vehicle: saline): 95 % of control
T/C (endpoint: mean survival time, dose: 2.5 mg/kg/injection, schedule: Q01DX009 (ip), vehicle: saline): 95 % of control

O=C(O)c1ccc(CC2CCC2)cc1
T/C (endpoint: mean survival time, dose: 100.0 mg/kg/injection, schedule: Q04DX002 (ip), vehicle: saline with Tween-80): 96 % of control
T/C (endpoint: mean survival time, dose: 200.0 mg/kg/injection, schedule: Q04DX002 (ip), vehicle: saline with Tween-80): 96 % of control
T/C (endpoint: mean survival time, dose: 400.0 mg/kg/injection, schedule: Q04DX002 (ip), vehicle: saline with Tween-80): 89 % of control

COC(=O)c1cccc(OCC(=O)Nc2ccccc2)c1
T/C [4]: 101 % of control
T/C [5]: 93 % of control
T/C (endpoint: mean survival time, dose: 400.0 mg/kg/injection, schedule: Q01DX001 (ip), vehicle: saline with Tween-80): 92 % of control

N#CC(=C=[N-])C(C#N)(C#N)Cc1ccccc1.[C-]#[O+].[C-]#[O+].[Fe+6].[c-]1[c-][c-][cH-][c-]1
T/C [3]: 93 % of control
T/C (endpoint: mean survival time, dose: 25.0 mg/kg/injection, schedule: Q04DX002 (ip), vehicle: saline with Tween-80): 97 % of control
T/C (endpoint: mean survival time, dose: 50.0 mg/kg/injection, schedule: Q04DX002 (ip), vehicle: saline with Tween-80): 97 % of control

CC(CCOc1ccc2ccc(=O)oc2c1)C1=CC(=O)C(C)(C)O1 (stereo not given)
T/C (endpoint: mean survival time, dose: 50.0 mg/kg/injection, schedule: Q01DX001 (ip), vehicle: saline with Tween-80): 113 % of control
T/C [4]: 95 % of control
T/C [5]: 98 % of control

O=C1C=C(O)c2cc(Br)ccc2C1=O.[Ag]
T/C (endpoint: mean survival time, dose: 25.0 mg/kg/injection, schedule: Q04DX002 (ip), vehicle: saline): 106 % of control
T/C (endpoint: mean survival time, dose: 50.0 mg/kg/injection, schedule: Q04DX002 (ip), vehicle: saline): 113 % of control
T/C (endpoint: mean survival time, dose: 100.0 mg/kg/injection, schedule: Q04DX002 (ip), vehicle: saline): 97 % of control

CCC(=O)Oc1ccc(/C=N/NC(N)=S)nc1
T/C (endpoint: mean survival time, dose: 100.0 mg/kg/injection, schedule: Q04DX002 (ip), vehicle: other): 108 % of control
T/C (endpoint: mean survival time, dose: 178.0 mg/kg/injection, schedule: Q01DX001 (ip), vehicle: other): 114 % of control
T/C (endpoint: mean survival time, dose: 178.0 mg/kg/injection, schedule: Q04DX003 (ip), vehicle: other): 116 % of control
T/C (endpoint: mean survival time, dose: 200.0 mg/kg/injection, schedule: Q04DX002 (ip), vehicle: other): 123 % of control
T/C (endpoint: mean survival time, dose: 266.0 mg/kg/injection, schedule: Q01DX001 (ip), vehicle: other): 112 % of control
T/C (endpoint: mean survival time, dose: 266.0 mg/kg/injection, schedule: Q04DX003 (ip), vehicle: other): 113 % of control
T/C (endpoint: mean survival time, dose: 400.0 mg/kg/injection, schedule: Q01DX001 (ip), vehicle: other): 118 % of control
T/C (endpoint: mean survival time, dose: 400.0 mg/kg/injection, schedule: Q04DX003 (ip), vehicle: other): 122 % of control
T/C (endpoint: mean survival time, dose: 600.0 mg/kg/injection, schedule: Q01DX001 (ip), vehicle: other): 110 % of control
T/C (endpoint: mean survival time, dose: 600.0 mg/kg/injection, schedule: Q04DX003 (ip), vehicle: other): 119 % of control
T/C (endpoint: mean survival time, dose: 900.0 mg/kg/injection, schedule: Q04DX003 (ip), vehicle: other): 122 % of control

C[CH2][Ge]([CH2]C)[CH2]C.C[CH2][Ge]([CH2]C)[CH2]C
T/C [2]: 104 % of control
T/C (endpoint: mean survival time, dose: 100.0 mg/kg/injection, schedule: Q04DX003 (ip), vehicle: saline with Tween-80): 100 % of control
T/C (endpoint: mean survival time, dose: 200.0 mg/kg/injection, schedule: Q04DX003 (ip), vehicle: saline with Tween-80): 104 % of control

Cc1ccc(S(=O)(=O)NC(=O)NCCC(C)C)cc1
T/C (endpoint: mean survival time, dose: 100.0 mg/kg/injection, schedule: Q01DX009 (ip), vehicle: saline sonified): 104 % of control
T/C (endpoint: mean survival time, dose: 200.0 mg/kg/injection, schedule: Q01DX009 (ip), vehicle: saline sonified): 97 % of control
T/C (endpoint: mean survival time, dose: 400.0 mg/kg/injection, schedule: Q01DX009 (ip), vehicle: saline sonified): 98 % of control

CC(C)N=C1N(C(C)C)C([O-])=N[N+]1(C)C
T/C (endpoint: mean survival time, dose: 100.0 mg/kg/injection, schedule: Q01DX009 (ip), vehicle: saline): 101 % of control
T/C (endpoint: mean survival time, dose: 100.0 mg/kg/injection, schedule: Q04DX003 (ip), vehicle: saline): 108 % of control
T/C (endpoint: mean survival time, dose: 200.0 mg/kg/injection, schedule: Q01DX009 (ip), vehicle: saline): 101 % of control
T/C (endpoint: mean survival time, dose: 200.0 mg/kg/injection, schedule: Q04DX003 (ip), vehicle: saline): 96 % of control
T/C (endpoint: mean survival time, dose: 400.0 mg/kg/injection, schedule: Q01DX009 (ip), vehicle: saline): 101 % of control
T/C (endpoint: mean survival time, dose: 400.0 mg/kg/injection, schedule: Q04DX003 (ip), vehicle: saline): 107 % of control

O=C(CCCN1CCC(O)(c2cccc(C(F)(F)F)c2)CC1)c1ccc(F)cc1
T/C (endpoint: mean survival time, dose: 12.5 mg/kg/injection, schedule: Q04DX003 (ip), vehicle: Klucel (hydroxypropylcellulose) (HPC)): 95 % of control
T/C (endpoint: mean survival time, dose: 25.0 mg/kg/injection, schedule: Q04DX003 (ip), vehicle: Klucel (hydroxypropylcellulose) (HPC)): 92 % of control
T/C (endpoint: mean survival time, dose: 50.0 mg/kg/injection, schedule: Q04DX003 (ip), vehicle: Klucel (hydroxypropylcellulose) (HPC)): 98 % of control
T/C (endpoint: mean survival time, dose: 100.0 mg/kg/injection, schedule: Q04DX003 (ip), vehicle: Klucel (hydroxypropylcellulose) (HPC)): 97 % of control

N#CC(C#N)=C/C=C/c1cccc([N+](=O)[O-])c1
T/C (endpoint: mean survival time, dose: 3.12 mg/kg/injection, schedule: Q01DX009 (ip), vehicle: Klucel (hydroxypropylcellulose) (HPC)): 101 % of control
T/C (endpoint: mean survival time, dose: 6.25 mg/kg/injection, schedule: Q01DX009 (ip), vehicle: Klucel (hydroxypropylcellulose) (HPC)): 109 % of control
T/C (endpoint: mean survival time, dose: 12.5 mg/kg/injection, schedule: Q01DX009 (ip), vehicle: Klucel (hydroxypropylcellulose) (HPC)): 104 % of control

O=C=Nc1cccc2c(N=C=O)cccc12
T/C (endpoint: mean survival time, dose: 12.5 mg/kg/injection, schedule: Q01DX009 (ip), vehicle: saline with Tween-80): 91 % of control
T/C (endpoint: mean survival time, dose: 25.0 mg/kg/injection, schedule: Q01DX009 (ip), vehicle: saline with Tween-80): 102 % of control
T/C (endpoint: mean survival time, dose: 50.0 mg/kg/injection, schedule: Q01DX009 (ip), vehicle: saline with Tween-80): 91 % of control

CC1OC(n2ncc(=O)[nH]c2=O)C(O)C(O)C1O (stereo not given)
T/C (endpoint: mean survival time, dose: 12.5 mg/kg/injection, schedule: Q01DX005 (ip), vehicle: distilled water + Tween-80): 105 % of control
T/C (endpoint: mean survival time, dose: 25.0 mg/kg/injection, schedule: Q01DX005 (ip), vehicle: distilled water + Tween-80): 100 % of control
T/C (endpoint: mean survival time, dose: 50.0 mg/kg/injection, schedule: Q01DX005 (ip), vehicle: distilled water + Tween-80): 103 % of control
T/C (endpoint: mean survival time, dose: 100.0 mg/kg/injection, schedule: Q01DX005 (ip), vehicle: distilled water + Tween-80): 103 % of control
T/C (endpoint: mean survival time, dose: 200.0 mg/kg/injection, schedule: Q01DX005 (ip), vehicle: distilled water + Tween-80): 107 % of control
